The results in this text go back to ChEMBL document CHEMBL4665648, “Potent and selective inhibitors of receptor-interacting protein kinase 1 that lack an aromatic back pocket group” (Bioorg Med Chem Lett, 2019).

In assay [1] the target is Proto-oncogene tyrosine-protein kinase receptor Ret (Homo sapiens) (UniProt P07949). Briefly: Inhibition of recombinant human GST-tagged full length RET (658 to 1114 residues) expressed in baculovirus expression system using Tyr 02 as substrate at 10 uM incubated for 60 mins by Z'-Lyte assay relative to control.
Assay [2] addresses Calcium/calmodulin-dependent protein kinase type IV (Homo sapiens) (UniProt Q16566). Briefly: Inhibition of recombinant human GST-tagged full length CAMK4 expressed in Escherichia coli expression system using Ser/Thr 13 as substrate at 10 uM incubated for 60 mins by Z'-Lyte assay relative to control.
Assay [3] concerns the target Homeodomain-interacting protein kinase 4 (Homo sapiens) (UniProt Q8NE63). As to the kind of experiment: Inhibition of recombinant human N-terminal GST-tagged HIPK4 expressed in baculovirus expression system using Ser/Thr 18 as substrate at 10 uM incubated for 60 mins by Z'-Lyte assay relative to control.
Assay [4] deals with Serine/threonine-protein kinase Nek1 (Homo sapiens) (UniProt Q96PY6). As to the kind of experiment: Inhibition of recombinant human GST-tagged NEK1 (1 to 505 residues) expressed in baculovirus expression system using Ser/Thr 07 as substrate at 10 uM incubated for 60 mins by Z'-lyte assay relative to control.
Sequence of Serine/threonine-protein kinase Nek1 (Homo sapiens) (Q96PY6 whole entry, the tested form may be a part): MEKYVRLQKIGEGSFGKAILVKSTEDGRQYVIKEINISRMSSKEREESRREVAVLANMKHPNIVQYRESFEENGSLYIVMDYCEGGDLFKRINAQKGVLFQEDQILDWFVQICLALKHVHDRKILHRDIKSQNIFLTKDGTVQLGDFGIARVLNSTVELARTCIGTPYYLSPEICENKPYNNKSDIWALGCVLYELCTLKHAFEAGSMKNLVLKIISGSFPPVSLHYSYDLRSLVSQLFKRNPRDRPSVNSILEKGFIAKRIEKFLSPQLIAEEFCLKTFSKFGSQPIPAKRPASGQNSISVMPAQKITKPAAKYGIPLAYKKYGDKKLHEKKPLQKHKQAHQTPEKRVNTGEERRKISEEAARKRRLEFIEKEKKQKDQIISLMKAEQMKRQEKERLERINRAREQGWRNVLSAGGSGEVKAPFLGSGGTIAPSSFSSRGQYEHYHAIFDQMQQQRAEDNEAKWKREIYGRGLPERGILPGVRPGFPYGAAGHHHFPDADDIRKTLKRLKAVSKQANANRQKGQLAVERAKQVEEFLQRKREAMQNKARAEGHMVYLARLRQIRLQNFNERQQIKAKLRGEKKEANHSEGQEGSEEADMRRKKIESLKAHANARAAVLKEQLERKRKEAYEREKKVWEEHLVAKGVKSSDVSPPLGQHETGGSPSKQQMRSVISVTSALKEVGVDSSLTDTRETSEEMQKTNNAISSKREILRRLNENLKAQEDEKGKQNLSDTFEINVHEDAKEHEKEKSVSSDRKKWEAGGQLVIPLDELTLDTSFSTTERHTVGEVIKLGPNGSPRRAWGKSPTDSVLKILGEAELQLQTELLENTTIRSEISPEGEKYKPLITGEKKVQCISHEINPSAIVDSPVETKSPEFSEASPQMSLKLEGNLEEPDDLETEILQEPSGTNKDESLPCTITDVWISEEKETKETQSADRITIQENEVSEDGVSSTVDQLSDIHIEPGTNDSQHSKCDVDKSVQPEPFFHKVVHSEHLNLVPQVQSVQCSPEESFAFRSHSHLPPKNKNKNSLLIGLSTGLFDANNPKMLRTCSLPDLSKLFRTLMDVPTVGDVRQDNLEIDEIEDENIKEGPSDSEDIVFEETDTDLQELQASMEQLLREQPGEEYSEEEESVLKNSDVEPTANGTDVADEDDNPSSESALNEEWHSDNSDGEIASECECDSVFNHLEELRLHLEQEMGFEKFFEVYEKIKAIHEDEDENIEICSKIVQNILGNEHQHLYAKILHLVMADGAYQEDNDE
Assay [5] addresses Cyclin-dependent kinase 5/CDK5 activator 1 (Homo sapiens) (UniProt Q00535+Q15078). As to the kind of experiment: Inhibition of recombinant human His/GST-tagged full length CDK5/p25 expressed in baculovirus expression system using Ser/Thr 12 as substrate at 10 uM incubated for 60 mins by Z'-Lyte assay relative to control.
Assay [6] has as its target Mitogen-activated protein kinase 11 (Homo sapiens) (UniProt Q15759). Briefly: Inhibition of recombinant human His-tagged full length p38 beta expressed in baculovirus expression system using Ser/Thr 15 as substrate at 10 uM incubated for 60 mins by Z'-Lyte assay relative to control.
For assay [7], the target named is Mitogen-activated protein kinase kinase kinase 5 (Homo sapiens) (UniProt Q99683). As to the kind of experiment: Inhibition of tracer 236 binding to recombinant human GST-tagged full length ASK1 expressed in baculovirus expression system at 10 uM incubated for 60 mins by Lanthascreen assay relative to control. (In general: TR-FRET usually uses a lanthanide donor and a delayed reading to cut background.)
Sequence of Mitogen-activated protein kinase kinase kinase 5 (Homo sapiens) (Q99683 whole entry): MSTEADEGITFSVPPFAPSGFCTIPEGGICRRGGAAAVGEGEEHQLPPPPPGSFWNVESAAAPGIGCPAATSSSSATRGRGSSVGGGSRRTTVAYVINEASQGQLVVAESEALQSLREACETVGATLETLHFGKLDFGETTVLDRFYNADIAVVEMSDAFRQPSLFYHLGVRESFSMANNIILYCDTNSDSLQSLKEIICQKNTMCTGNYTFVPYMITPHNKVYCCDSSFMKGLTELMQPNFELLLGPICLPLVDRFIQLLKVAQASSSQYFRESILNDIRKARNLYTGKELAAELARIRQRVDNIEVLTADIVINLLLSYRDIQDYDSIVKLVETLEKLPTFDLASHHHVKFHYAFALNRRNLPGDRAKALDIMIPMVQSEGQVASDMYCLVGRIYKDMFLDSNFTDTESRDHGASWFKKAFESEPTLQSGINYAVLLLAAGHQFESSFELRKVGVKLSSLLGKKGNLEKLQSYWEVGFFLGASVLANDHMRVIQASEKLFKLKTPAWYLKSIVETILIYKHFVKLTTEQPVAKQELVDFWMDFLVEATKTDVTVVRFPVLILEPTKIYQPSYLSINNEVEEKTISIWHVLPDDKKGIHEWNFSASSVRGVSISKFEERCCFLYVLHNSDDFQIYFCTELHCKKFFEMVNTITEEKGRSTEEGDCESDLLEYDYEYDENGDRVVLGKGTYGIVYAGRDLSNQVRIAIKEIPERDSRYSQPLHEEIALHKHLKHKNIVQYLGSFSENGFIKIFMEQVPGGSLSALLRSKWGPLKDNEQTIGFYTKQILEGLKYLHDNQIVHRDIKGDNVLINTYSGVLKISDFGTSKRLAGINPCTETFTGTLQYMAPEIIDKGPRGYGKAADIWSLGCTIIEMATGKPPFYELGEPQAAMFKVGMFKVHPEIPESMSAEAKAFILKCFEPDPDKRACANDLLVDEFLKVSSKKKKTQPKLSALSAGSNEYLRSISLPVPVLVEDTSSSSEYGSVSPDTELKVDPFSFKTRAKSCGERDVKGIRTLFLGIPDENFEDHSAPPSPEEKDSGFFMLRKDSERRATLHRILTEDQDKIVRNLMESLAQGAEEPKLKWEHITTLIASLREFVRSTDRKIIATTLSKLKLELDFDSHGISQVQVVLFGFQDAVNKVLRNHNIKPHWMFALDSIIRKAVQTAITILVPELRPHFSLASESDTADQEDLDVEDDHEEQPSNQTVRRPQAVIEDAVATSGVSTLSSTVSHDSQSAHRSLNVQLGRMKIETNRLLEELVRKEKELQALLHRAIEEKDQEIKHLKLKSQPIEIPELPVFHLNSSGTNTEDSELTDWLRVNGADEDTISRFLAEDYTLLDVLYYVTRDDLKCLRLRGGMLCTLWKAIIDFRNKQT

In assay [8] the target is Serine/threonine-protein kinase B-raf (Homo sapiens) (UniProt P15056). Briefly: Inhibition of recombinant human GST-tagged full length BRAF expressed in baculovirus expression system using Ser/Thr 03 as substrate at 10 uM incubated for 60 mins by Z'-Lyte assay relative to control.
Sequence of Serine/threonine-protein kinase B-raf (Homo sapiens) (P15056 whole entry): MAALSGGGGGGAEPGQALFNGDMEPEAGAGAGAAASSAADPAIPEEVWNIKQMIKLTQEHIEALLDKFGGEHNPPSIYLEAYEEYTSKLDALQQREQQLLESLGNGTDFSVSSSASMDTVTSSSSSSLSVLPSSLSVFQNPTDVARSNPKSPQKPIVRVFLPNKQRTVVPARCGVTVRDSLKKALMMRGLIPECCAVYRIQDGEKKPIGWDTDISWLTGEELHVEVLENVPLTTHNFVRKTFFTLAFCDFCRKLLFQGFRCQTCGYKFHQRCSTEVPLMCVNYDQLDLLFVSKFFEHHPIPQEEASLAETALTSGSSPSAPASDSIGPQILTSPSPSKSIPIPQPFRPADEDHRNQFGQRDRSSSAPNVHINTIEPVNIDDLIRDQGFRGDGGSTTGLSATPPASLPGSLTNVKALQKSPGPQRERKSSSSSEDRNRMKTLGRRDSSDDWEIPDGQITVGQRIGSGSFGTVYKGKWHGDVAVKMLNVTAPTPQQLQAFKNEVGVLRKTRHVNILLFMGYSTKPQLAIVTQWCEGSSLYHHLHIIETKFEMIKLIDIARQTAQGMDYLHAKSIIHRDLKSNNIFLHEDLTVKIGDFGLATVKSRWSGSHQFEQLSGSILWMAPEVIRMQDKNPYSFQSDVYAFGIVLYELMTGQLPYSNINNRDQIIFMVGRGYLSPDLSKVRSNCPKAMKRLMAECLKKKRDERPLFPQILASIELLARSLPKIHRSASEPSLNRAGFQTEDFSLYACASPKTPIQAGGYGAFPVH

Sequence of Calcium/calmodulin-dependent protein kinase type IV (Homo sapiens) (Q16566 whole entry): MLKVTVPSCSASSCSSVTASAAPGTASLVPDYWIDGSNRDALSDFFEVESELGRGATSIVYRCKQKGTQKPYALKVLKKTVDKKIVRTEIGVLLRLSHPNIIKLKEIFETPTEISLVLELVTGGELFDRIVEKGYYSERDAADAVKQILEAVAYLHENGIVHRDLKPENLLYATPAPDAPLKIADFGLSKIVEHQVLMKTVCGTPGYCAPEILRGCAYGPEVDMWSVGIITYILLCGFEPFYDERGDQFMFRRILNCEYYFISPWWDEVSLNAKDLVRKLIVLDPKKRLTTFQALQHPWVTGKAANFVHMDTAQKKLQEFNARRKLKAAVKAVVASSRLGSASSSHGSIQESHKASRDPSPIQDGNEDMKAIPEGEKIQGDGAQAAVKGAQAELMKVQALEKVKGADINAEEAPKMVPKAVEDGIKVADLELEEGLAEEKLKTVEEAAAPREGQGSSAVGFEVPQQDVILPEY
Sequence of Homeodomain-interacting protein kinase 4 (Homo sapiens) (Q8NE63 whole entry, the tested form may be a part): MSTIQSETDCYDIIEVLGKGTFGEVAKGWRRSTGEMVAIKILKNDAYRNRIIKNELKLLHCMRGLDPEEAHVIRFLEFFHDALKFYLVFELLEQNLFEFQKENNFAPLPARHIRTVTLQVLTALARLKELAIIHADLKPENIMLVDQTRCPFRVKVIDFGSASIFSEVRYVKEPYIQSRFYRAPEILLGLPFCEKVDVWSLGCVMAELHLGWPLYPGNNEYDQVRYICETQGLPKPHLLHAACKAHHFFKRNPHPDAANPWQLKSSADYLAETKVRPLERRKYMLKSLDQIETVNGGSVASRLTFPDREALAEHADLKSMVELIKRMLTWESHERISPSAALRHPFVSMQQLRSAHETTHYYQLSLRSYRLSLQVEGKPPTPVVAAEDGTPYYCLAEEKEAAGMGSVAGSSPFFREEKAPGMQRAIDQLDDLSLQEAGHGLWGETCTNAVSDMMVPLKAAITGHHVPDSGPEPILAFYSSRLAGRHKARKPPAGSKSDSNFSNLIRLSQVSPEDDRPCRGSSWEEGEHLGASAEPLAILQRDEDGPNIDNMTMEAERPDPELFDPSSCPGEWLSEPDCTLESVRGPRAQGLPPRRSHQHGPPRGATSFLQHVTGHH
Sequence of Mitogen-activated protein kinase 11 (Homo sapiens) (Q15759 whole entry): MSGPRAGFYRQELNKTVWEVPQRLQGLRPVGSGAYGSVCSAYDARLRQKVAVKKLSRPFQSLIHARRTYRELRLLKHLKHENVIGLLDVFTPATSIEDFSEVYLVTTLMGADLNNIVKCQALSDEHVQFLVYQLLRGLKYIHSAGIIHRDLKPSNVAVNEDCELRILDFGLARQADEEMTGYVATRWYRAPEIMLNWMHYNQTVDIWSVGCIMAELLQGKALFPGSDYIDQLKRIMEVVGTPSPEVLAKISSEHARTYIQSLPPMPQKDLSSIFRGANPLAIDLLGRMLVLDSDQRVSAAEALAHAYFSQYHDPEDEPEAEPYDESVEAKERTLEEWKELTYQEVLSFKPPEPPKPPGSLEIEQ

Consider `CN1C(=O)[C@@H](NC(=O)c2n[nH]c3ncc(C(F)(F)C(F)(F)F)cc23)COc2ccccc21`, for which the inhibition (in general, the relative decrease from the control value, in per cent) in assay [1] is 4%; in assay [2], -2%; in assay [3], 17.5%; in assay [4] it was 9%; in assay [5], 14.5%; in assay [6] it was 9%. The figures for the inhibition in assay [7] and in assay [8] were 0.5% and 26.5%, respectively.
